Test results as given in ChEMBL document CHEMBL3259665, “Development of bacterial transglycosylase inhibitors as new antibiotics: moenomycin A treatment for drug-resistant Helicobacter pylori” (Bioorg Med Chem Lett, 2014).
In brackets after ≈: the same amount, converted by molar mass.

Key:
[1] = system: Helicobacter pylori; assay: Antimicrobial activity against Helicobacter pylori isolated from gastrointestinal disease patient after 72 hrs by Etest method; type: functional
[2] = Binding affinity to Helicobacter pylori transglycosylase
[3] = system: Helicobacter pylori; assay: Antimicrobial activity against Helicobacter pylori; type: functional

| MIC90 [1] | Kd [2] | MIC [3] | Structure (SMILES) |
| --- | --- | --- | --- |
| 8 µg/mL (≈ 10.7 µM) |  |  | CC[C@H]1OC(=O)[C@H](C)[C@@H](O[C@H]2C[C@@](C)(OC)[C@@H](O)[C@H](C)O2)[C@H](C)[C@@H](O[C@@H]2O[C@H](C)C[C@H](N(C)C)[C@H]2O)[C@](C)(OC)C[C@@H](C)C(=O)[C@H](C)[C@@H](O)[C@]1(C)O [CLARITHROMYCIN] |
| 1 µg/mL |  |  | C[C@H]1COc2c(N3CCN(C)CC3)c(F)cc3c(=O)c(C(=O)O)cn1c23.C[C@H]1COc2c(N3CCN(C)CC3)c(F)cc3c(=O)c(C(=O)O)cn1c23.O [LEVOFLOXACIN] |
| 16 µg/mL (≈ 93.5 µM) |  |  | Cc1ncc([N+](=O)[O-])n1CCO [METRONIDAZOLE] |
| 2 µg/mL (≈ 1.26 µM) | 25 nM | 1.3 µM (≈ 2.06 µg/mL) | C=C(C/C=C(\C)CCC=C(C)C)CCC(C)(C)/C=C/CC/C(C)=C/CO[C@@H](COP(=O)(O)O[C@H]1O[C@H](C(N)=O)[C@@](C)(O)[C@H](OC(N)=O)[C@H]1O[C@@H]1O[C@H](CO[C@@H]2O[C@H](CO)[C@@H](O)[C@H](O)[C@H]2O)[C@@H](O[C@@H]2O[C@H](C)[C@@H](O[C@@H]3O[C@H](C(=O)NC4=C(O)CCC4=O)[C@H](O)[C@H](O)[C@H]3O)[C@H](O)[C@H]2NC(C)=O)[C@H](O)[C@H]1NC(C)=O)C(=O)O [MOENOMYCIN A] |
| 0.5 µg/mL (≈ 1.13 µM) |  |  | CN(C)[C@@H]1C(O)=C(C(N)=O)C(=O)[C@@]2(O)C(O)=C3C(=O)c4c(O)cccc4[C@@](C)(O)[C@H]3C[C@@H]12 [TETRACYCLINE] |
